Measured values from patent US11286281B2, “Homodetic cyclic peptides targeting alpha-4-beta-7 integrin” (priority 2017, dated 2022).
Values joined by “and” are separate entries in the source; they are usually repeats but may differ in a detail not shown here. Equal values may be shown once. Numbered stars: 1 amine (or outer) side, 2 acyl side, 3 side chain; on linkers, the order of the positions; unused ones are H or OH. Square brackets hold non-standard residues; d marks the D form. Peptide text beside a SMILES is read from it. X1 = O=C(c1ccc(-c2ccc(N3CCNCC3)cc2)c(CN[*:1])c1)[*:2]

Molecular target: integrin α4β1 (Homo sapiens, UniProt P05556+P13612)
Assay: Integrin α4β1-VCAM human cell adhesion assay (RAMOS cells)
Assay type: cell-based
Parameters: host or cells: RAMOS human cells
Details: adhesion of RAMOS cells to VCAM-1 coated plates
Protocol: Integrin α4β1-VCAM Human Cell Adhesion Assay
RAMOS human cells (ATCC CRL-1596) were cultured in RPMI 1640 medium (HyClone SH30027.1) supplemented with 10% FBS (Seradigm) and 1% Penicillin-Streptomycin. A 96-well plate (Costar, 3603) was coated with 100 μl/well of recombinant human VCAM-1 Fc Chimera (R&D systems, 862-VC-100) solution at 0.25 μg/ml in coating buffer (50 mM sodium carbonate, pH 9.6). The plate was incubated overnight at 4° C. and washed twice with […] per well wash buffer (0.05% Tween 20 in PBS), blocked with 250 μl per well blocking buffer (1% non-fat dry milk in PBS), for 1 hour at room temperature. During blocking step, RAMOS cells were resuspended at 10 million cells/ml in PBS containing […] and incubated at 37° C. for 30 min in a 50 ml tube. PBS was added to fill the tube, cells were spun down and resuspended in RPMI 1640 medium to 2 million/mi. Compounds were diluted by serial dilution in binding buffer (1.5 mM CaCl2, 0.5 mM MnCl2, 50 mM Tris-HCl, pH 7.5) to a final volume of 50 μl per well at 2× concentration. […] After last wash, 100 μL of PBS was added to wells and the fluorescence was read (Ex495/Em515) using a plate reader (Tecan Infinite 1000). To calculate the dose response, the fluorescence value of control wells not containing cells was subtracted from each test well.

integrin α4β1, sequence (P13612 34-1032): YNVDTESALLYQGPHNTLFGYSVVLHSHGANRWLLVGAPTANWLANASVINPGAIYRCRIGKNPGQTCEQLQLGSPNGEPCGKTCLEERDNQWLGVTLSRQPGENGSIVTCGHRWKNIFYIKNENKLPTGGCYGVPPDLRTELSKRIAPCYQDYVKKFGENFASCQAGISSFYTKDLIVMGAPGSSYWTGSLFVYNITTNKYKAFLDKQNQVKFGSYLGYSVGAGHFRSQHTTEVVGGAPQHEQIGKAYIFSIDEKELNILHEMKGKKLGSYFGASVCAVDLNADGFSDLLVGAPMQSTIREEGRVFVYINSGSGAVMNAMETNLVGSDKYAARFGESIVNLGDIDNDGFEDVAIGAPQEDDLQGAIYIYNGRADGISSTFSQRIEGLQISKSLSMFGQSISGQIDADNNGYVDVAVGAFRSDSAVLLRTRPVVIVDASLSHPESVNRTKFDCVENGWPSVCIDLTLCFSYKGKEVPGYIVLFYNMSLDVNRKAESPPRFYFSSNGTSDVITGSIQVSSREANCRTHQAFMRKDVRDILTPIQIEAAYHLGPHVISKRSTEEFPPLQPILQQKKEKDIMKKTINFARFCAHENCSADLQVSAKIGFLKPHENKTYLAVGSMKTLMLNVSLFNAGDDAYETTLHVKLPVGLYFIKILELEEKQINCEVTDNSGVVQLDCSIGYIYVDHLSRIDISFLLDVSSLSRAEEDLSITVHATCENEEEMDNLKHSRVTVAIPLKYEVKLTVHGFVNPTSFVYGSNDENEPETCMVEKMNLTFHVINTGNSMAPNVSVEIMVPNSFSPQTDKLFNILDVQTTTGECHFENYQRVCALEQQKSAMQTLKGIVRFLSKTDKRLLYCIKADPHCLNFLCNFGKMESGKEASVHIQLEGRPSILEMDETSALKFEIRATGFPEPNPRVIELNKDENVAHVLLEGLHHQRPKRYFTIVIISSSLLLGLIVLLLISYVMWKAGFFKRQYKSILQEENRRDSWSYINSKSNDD
integrin α4β1, sequence (P05556 21-798): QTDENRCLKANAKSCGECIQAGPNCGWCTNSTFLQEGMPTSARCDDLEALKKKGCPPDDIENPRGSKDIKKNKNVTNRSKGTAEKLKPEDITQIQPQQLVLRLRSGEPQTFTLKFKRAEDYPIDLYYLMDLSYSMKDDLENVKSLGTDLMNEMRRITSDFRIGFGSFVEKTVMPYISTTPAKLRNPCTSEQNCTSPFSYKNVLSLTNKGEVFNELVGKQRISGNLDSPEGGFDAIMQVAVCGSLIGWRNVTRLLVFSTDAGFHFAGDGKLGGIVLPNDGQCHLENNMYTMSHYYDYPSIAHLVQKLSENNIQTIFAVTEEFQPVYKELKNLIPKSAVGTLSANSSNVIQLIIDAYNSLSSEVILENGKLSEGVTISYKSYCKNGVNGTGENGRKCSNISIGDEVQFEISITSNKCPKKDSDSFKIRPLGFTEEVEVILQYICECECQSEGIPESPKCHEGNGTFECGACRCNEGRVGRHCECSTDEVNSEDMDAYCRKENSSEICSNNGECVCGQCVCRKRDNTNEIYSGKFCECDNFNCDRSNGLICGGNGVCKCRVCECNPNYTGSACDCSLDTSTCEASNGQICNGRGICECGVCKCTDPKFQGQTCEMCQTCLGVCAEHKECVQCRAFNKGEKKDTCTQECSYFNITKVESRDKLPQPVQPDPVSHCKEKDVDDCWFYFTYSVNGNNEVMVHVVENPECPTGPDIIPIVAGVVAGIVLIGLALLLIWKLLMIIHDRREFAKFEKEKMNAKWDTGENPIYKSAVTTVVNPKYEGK

| SMILES | IC50 |
| --- | --- |
| CC(C)C[C@@H]1NC(=O)c2ccc(-c3ccc(N4CCNCC4)cc3)c(c2)CNC(=O)[C@@H]2CCCN2C(=O)[C@H](C)NC(=O)[C@H]([C@@H](C)O)NC(=O)[C@H](CC(=O)O)NC1=O [Compound 8] (cyclo(P[X1]LDTA)) | ~451 nM and 451 nM |
| CC(C)C[C@@H]1NC(=O)c2ccc(-c3ccc(N4CCN(Cc5cccc(CN6CCN(c7ccc(-c8ccc9cc8CNC(=O)[C@@H]8CCCN8C(=O)[C@H](C)NC(=O)[C@H]([C@@H](C)O)NC(=O)[C@H](CC(=O)O)NC(=O)[C@H](CC(C)C)NC9=O)cc7)CC6)c5)CC4)cc3)c(c2)CNC(=O)[C@@H]2CCCN2C(=O)[C@H](C)NC(=O)[C@H]([C@@H](C)O)NC(=O)[C@H](CC(=O)O)NC1=O [Compound 18] | 184 nM |
